How the values were obtained:
[1] = tested on: green foxtail; test: Test Example 5: herbicidal effect by foliage application, plastic box (Table 20, symbol G); assay type: in vivo, green foxtail (Setaria viridis); conditions: foliage application after 14-day growth, evaluated three weeks after application; for Herbicidal effect by foliage application, G: green foxtail: amount of applied herbicide 320 g/ha
In short: (§1)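 Post-emergence foliar test in sterilized diluvial soil. Compound applied as water-diluted emulsion at a predetermined rate to 14-day-old plants; evaluation at three weeks.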

[2] = tested on: redroot pigweed; test: Test Example 5: herbicidal effect by foliage application, plastic box (Table 20, symbol N); assay type: in vivo, redroot pigweed (Amaranthus retroflexus); conditions: foliage application after 14-day growth, evaluated three weeks after application; for Herbicidal effect by foliage application, N: redroot pigweed: amount of applied herbicide 320 g/ha
In short: as §1

[3] = tested on: chickweed; test: Test Example 5: herbicidal effect by foliage application, plastic box (Table 20, symbol P); assay type: in vivo, common chickweed (Stellaria media); conditions: foliage application after 14-day growth, evaluated three weeks after application; for Herbicidal effect by foliage application, P: chickweed: amount of applied herbicide 320 g/ha
In short: as §1

[4] = tested on: barnyard grass; test: Test Example 3: herbicidal effect by foliage application, Wagner pot (Table 18, symbol H); assay type: in vivo, barnyard grass (Echinochloa crus-galli); conditions: 320 g/ha
In short: (§2)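 Plants were sown in alluvial soil held under 0.1–0.5 cm standing water and grown 14 days in a greenhouse at 25–30 °C. An emulsifiable formulation, water-diluted to the set dose, was then sprayed onto the foliage, and effects were scored three weeks later using previously defined criteria.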

[5] = tested on: Chinese sprangletop; test: Test Example 3: herbicidal effect by foliage application, Wagner pot (Table 18, symbol D); assay type: in vivo, chinese sprangletop (Leptochloa chinensis); conditions: 320 g/ha
In short: as §2

[6] = tested on: velvetleaf; test: Test Example 5: herbicidal effect by foliage application, plastic box (Table 20, symbol M); assay type: in vivo, velvetleaf (Abutilon theophrasti); conditions: foliage application after 14-day growth, evaluated three weeks after application; for Herbicidal effect by foliage application, M: velvetleaf: amount of applied herbicide 320 g/ha
In short: as §1

[7] = tested on: barnyard grass; test: Test Example 5: herbicidal effect by foliage application, plastic box (Table 20, symbol H); assay type: in vivo, barnyard grass (Echinochloa crus-galli); conditions: foliage application after 14-day growth, evaluated three weeks after application; for Herbicidal effect by foliage application, H: barnyard grass: amount of applied herbicide 320 g/ha
In short: as §1

[8] = tested on: windgrass; test: Test Example 5: herbicidal effect by foliage application, plastic box (Table 20, symbol L); assay type: in vivo, windgrass (Apera spica-venti); conditions: foliage application after 14-day growth, evaluated three weeks after application; for Herbicidal effect by foliage application, L: windgrass: amount of applied herbicide 320 g/ha
In short: as §1

[9] = tested on: persian speedwell; test: Test Example 5: herbicidal effect by foliage application, plastic box (Table 20, symbol R); assay type: in vivo, Persian speedwell (Veronica persica); conditions: foliage application after 14-day growth, evaluated three weeks after application; for Herbicidal effect by foliage application, R: persian speedwell: amount of applied herbicide 320 g/ha
In short: as §1

[10] = tested on: blackgrass; test: Test Example 5: herbicidal effect by foliage application, plastic box (Table 20, symbol J); assay type: in vivo, blackgrass (Alopecurus myosuroides); conditions: foliage application after 14-day growth, evaluated three weeks after application; for Herbicidal effect by foliage application, J: blackgrass: amount of applied herbicide 320 g/ha
In short: as §1

[11] = tested on: false cleavers; test: Test Example 5: herbicidal effect by foliage application, plastic box (Table 20, symbol Q); assay type: in vivo, false cleavers (Galium spurium); conditions: foliage application after 14-day growth, evaluated three weeks after application; for Herbicidal effect by foliage application, Q: false cleavers: amount of applied herbicide 320 g/ha
Text: [Test Example 5] Herbicidal Effect Test by Foliage Application
Sterilized diluvial soil was placed in a plastic box having a length of 21 cm, a width of 13 cm, and a depth of 7 cm. The seeds of each of southern crabgrass, green foxtail, barnyard grass, wild oat, blackgrass, Italian ryegrass, windgrass, velvetleaf, redroot pigweed, lambsquarters, chickweed, false cleavers, persian speedwell, corn, soybean, rice, wheat, beet, and rapeseed were sowed in a spot-like manner and covered with the soil having a thickness of about 1.5 cm. Thereafter, the plants were grown in a greenhouse at 25° C. to 30° C. After 14-day growth of the plants, the emulsion agent of the compound of the present invention prepared according to Formulation Example 2 was diluted with water so as to achieve a predetermined herbicide amount, and the diluted emulsion agent was uniformly applied to a foliage part with a small-sized spray. Three weeks after the herbicide application, the effect of the herbicide on each plant was evaluated according to the criteria of Test Example 1.

[12] = tested on: wild oat; test: Test Example 5: herbicidal effect by foliage application, plastic box (Table 20, symbol I); assay type: in vivo, wild oat (Avena fatua); conditions: foliage application after 14-day growth, evaluated three weeks after application; for Herbicidal effect by foliage application, I: wild oat: amount of applied herbicide 320 g/ha
In short: as §1

[13] = tested on: rice flat sedge; test: Test Example 3: herbicidal effect by foliage application, Wagner pot (Table 18, symbol E); assay type: in vivo, rice flat sedge (Cyperus iria); conditions: 320 g/ha
In short: as §2

[14] = tested on: lambsquarters; test: Test Example 5: herbicidal effect by foliage application, plastic box (Table 20, symbol O); assay type: in vivo, lambsquarters (Chenopodium album); conditions: foliage application after 14-day growth, evaluated three weeks after application; for Herbicidal effect by foliage application, O: lambsquarters: amount of applied herbicide 320 g/ha
In short: as §1

[15] = tested on: southern crabgrass; test: Test Example 5: herbicidal effect by foliage application, plastic box (Table 20, symbol F); assay type: in vivo, southern crabgrass (Digitaria ciliaris); conditions: foliage application after 14-day growth, evaluated three weeks after application; for Herbicidal effect by foliage application, F: southern crabgrass: amount of applied herbicide 320 g/ha
In short: as §1

[16] = tested on: Italian ryegrass; test: Test Example 5: herbicidal effect by foliage application, plastic box (Table 20, symbol K); assay type: in vivo, Italian ryegrass (Lolium multiflorum); conditions: foliage application after 14-day growth, evaluated three weeks after application; for Herbicidal effect by foliage application, K: Italian ryegrass: amount of applied herbicide 320 g/ha
In short: as §1

SMILES | herbicidal effect on barnyard grass (H) [4] | herbicidal effect on Chinese sprangletop (D) [5] | herbicidal effect on rice flat sedge (E) [13] | Herbicidal effect by foliage application, G: green foxtail [1] | Herbicidal effect by foliage application, N: redroot pigweed [2] | Herbicidal effect by foliage application, P: chickweed [3] | Herbicidal effect by foliage application, M: velvetleaf [6] | Herbicidal effect by foliage application, H: barnyard grass [7] | Herbicidal effect by foliage application, L: windgrass [8] | Herbicidal effect by foliage application, R: persian speedwell [9] | Herbicidal effect by foliage application, J: blackgrass [10] | Herbicidal effect by foliage application, Q: false cleavers [11] | Herbicidal effect by foliage application, I: wild oat [12] | Herbicidal effect by foliage application, O: lambsquarters [14] | Herbicidal effect by foliage application, F: southern crabgrass [15] | Herbicidal effect by foliage application, K: Italian ryegrass [16] | further results
COc1cccc(-c2sc3c(Cl)cccc3c2-c2c(O)c(C)nn(C)c2=O)c1 [4-064] | 4 (Herbicidal rate of 70% or more and less than 90%) | 3 (Herbicidal rate of 40% or more and less than 70%) | 4 (Herbicidal rate of 70% or more and less than 90%) |  |  |  |  |  |  |  |  |  |  |  |  |  | herbicidal effect on G: green foxtail (evaluation grade 0-5) ([1]; 320 g/ha): 3 (Herbicidal rate of 40% or more and less than 70%); herbicidal effect on N: redroot pigweed (evaluation grade 0-5) ([2]; 320 g/ha): 5 (Herbicidal rate of 90% or more (almost completely withered)); herbicidal effect on P: chickweed (evaluation grade 0-5) ([3]; 320 g/ha): 5 (Herbicidal rate of 90% or more (almost completely withered)); herbicidal effect on M: velvetleaf (evaluation grade 0-5) ([6]; 320 g/ha): 3 (Herbicidal rate of 40% or more and less than 70%); herbicidal effect on H: barnyard grass (evaluation grade 0-5) ([7]; 320 g/ha): 1 (Herbicidal rate of 5% or more and less than 20%); herbicidal effect on L: windgrass (evaluation grade 0-5) ([8]; 320 g/ha): 5 (Herbicidal rate of 90% or more (almost completely withered)); herbicidal effect on R: persian speedwell (evaluation grade 0-5) ([9]; 320 g/ha): 5 (Herbicidal rate of 90% or more (almost completely withered)); herbicidal effect on J: blackgrass (evaluation grade 0-5) ([10]; 320 g/ha): 0 (Herbicidal rate of 5% or less (almost no effect)); herbicidal effect on Q: false cleavers (evaluation grade 0-5) ([11]; 320 g/ha): 1 (Herbicidal rate of 5% or more and less than 20%); herbicidal effect on I: wild oat (evaluation grade 0-5) ([12]; 320 g/ha): 0 (Herbicidal rate of 5% or less (almost no effect)); herbicidal effect on O: lambsquarters (evaluation grade 0-5) ([14]; 320 g/ha): 3 (Herbicidal rate of 40% or more and less than 70%); herbicidal effect on F: southern crabgrass (evaluation grade 0-5) ([15]; 320 g/ha): 1 (Herbicidal rate of 5% or more and less than 20%); herbicidal effect on K: Italian ryegrass (evaluation grade 0-5) ([16]; 320 g/ha): 3 (Herbicidal rate of 40% or more and less than 70%)
CSc1ccccc1-c1sc2c(Cl)cccc2c1-c1c(O)c(C)nn(C)c1=O [4-086] | 4 (Herbicidal rate of 70% or more and less than 90%) | 3 (Herbicidal rate of 40% or more and less than 70%) | 3 (Herbicidal rate of 40% or more and less than 70%) | 3 (Herbicidal rate of 40% or more and less than 70%) | 4 (Herbicidal rate of 70% or more and less than 90%) | 5 (Herbicidal rate of 90% or more (almost completely withered)) | 3 (Herbicidal rate of 40% or more and less than 70%) | 1 (Herbicidal rate of 5% or more and less than 20%) | 4 (Herbicidal rate of 70% or more and less than 90%) | 5 (Herbicidal rate of 90% or more (almost completely withered)) | 0 (Herbicidal rate of 5% or less (almost no effect)) | 1 (Herbicidal rate of 5% or more and less than 20%) | 0 (Herbicidal rate of 5% or less (almost no effect)) | 3 (Herbicidal rate of 40% or more and less than 70%) | 0 (Herbicidal rate of 5% or less (almost no effect)) | 0 (Herbicidal rate of 5% or less (almost no effect)) | 
CCSc1ccccc1-c1sc2c(C)cccc2c1-c1c(O)c(C)nn(C)c1=O [4-120] | 2 (Herbicidal rate of 20% or more and less than 40%) | 3 (Herbicidal rate of 40% or more and less than 70%) | 2 (Herbicidal rate of 20% or more and less than 40%) | 0 (Herbicidal rate of 5% or less (almost no effect)) | 0 (Herbicidal rate of 5% or less (almost no effect)) | 5 (Herbicidal rate of 90% or more (almost completely withered)) | 0 (Herbicidal rate of 5% or less (almost no effect)) | 0 (Herbicidal rate of 5% or less (almost no effect)) | 0 (Herbicidal rate of 5% or less (almost no effect)) | 5 (Herbicidal rate of 90% or more (almost completely withered)) | 0 (Herbicidal rate of 5% or less (almost no effect)) | 0 (Herbicidal rate of 5% or less (almost no effect)) | 0 (Herbicidal rate of 5% or less (almost no effect)) | 0 (Herbicidal rate of 5% or less (almost no effect)) | 0 (Herbicidal rate of 5% or less (almost no effect)) | 0 (Herbicidal rate of 5% or less (almost no effect)) | 

From patent US20230085307A1, “PYRIDAZINONE COMPOUND AND HERBICIDE” (NISSAN CHEMICAL CORPORATION, priority 2019, published 2023)
